Numbered stars: 1 amine (or outer) side, 2 acyl side, 3 side chain; on linkers, the order of the positions; unused ones are H or OH. Square brackets hold non-standard residues; d marks the D form. Peptide text beside a SMILES is read from it. * marks the point of attachment. Dap(Nα-HOOC(CH2)16CO)OH = O=C(O)CCCCCCCCCCCCCCCCC(=O)N[C@@H](CN*)C(=O)O; Bip = N[C@@H](Cc1ccc(-c2ccccc2)cc1)C(=O)O; X1 = C[C@@](CCc1ccccc1)(N[*:1])C(=O)[*:2]; X2 = O=C(CCc1ccc(I)cc1)N[C@@H](CN*)C(=O)O; αMePhe(2-F) = C[C@](N)(Cc1ccccc1F)C(=O)O; hTyr = N[C@@H](CCc1ccc(O)cc1)C(=O)O; hPhe = N[C@@H](CCc1ccccc1)C(=O)O; AEEA = NCCOCCOCC(=O)O; Aib = CC(C)(N)C(=O)O
biological target: T1, hGLP1 receptor (Homo sapiens, UniProt P43220); test: cAMP HTRF agonist assay in HEK cells co-expressing hGLP1 receptor and CRE-Luciferase; assay type: cell-based; details: Table 5; 0% albumin; read-out: cAMP EC50, nM (0% albumin)
T1 construct: expressed in transfected cells; host or cells: HEK (human embryonic kidney) cells co-expressing hGLP1 receptor and CRE-Luciferase
Method in brief: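 HEK cells co-expressing hGLP1R and CRE-luciferase, 1000 cells/well in DPBS with 500 μM IBMX, exposed to peptides or exendin-4 reference for 30 min; 11-point 1:3 series from top 1.0 μM. cAMP measured by HTRF (665/615 nm) after 1 h at room temperature; EC50 from 4-parameter logistic fit.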

T1 sequence (P43220 24-463): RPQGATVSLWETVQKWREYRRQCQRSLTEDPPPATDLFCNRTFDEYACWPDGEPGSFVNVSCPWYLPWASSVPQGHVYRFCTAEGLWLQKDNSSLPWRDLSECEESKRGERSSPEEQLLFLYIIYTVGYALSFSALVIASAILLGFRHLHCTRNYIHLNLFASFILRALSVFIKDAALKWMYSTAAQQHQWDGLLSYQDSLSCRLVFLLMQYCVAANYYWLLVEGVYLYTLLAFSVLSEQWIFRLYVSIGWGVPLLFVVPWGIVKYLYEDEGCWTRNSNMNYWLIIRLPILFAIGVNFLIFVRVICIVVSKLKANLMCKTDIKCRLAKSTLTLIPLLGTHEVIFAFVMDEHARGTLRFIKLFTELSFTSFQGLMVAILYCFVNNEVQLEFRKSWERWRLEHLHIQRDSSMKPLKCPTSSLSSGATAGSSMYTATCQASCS

Row | SMILES | EC50 [nM]
1 | C[C@@H](O)[C@H](NC(=O)CNC(=O)[C@H](CCC(=O)O)NC(=O)C(C)(C)NC(=O)[C@@H](N)Cc1c[nH]cn1)C(=O)N[C@@](C)(Cc1ccccc1F)C(=O)N[C@H](C(=O)N[C@@H](CO)C(=O)N[C@@H](CC(=O)O)C(=O)N[C@@H](Cc1ccc(-c2ccccc2)cc1)C(=O)N[C@@](C)(CCc1ccccc1)C(N)=O)[C@@H](C)O [4-2, H2N-His-Aib-Glu-Gly-Thr-α-MePhe(2-F)-Thr-Ser-Asp-Bip-α-MeHph-C(O)NH2] (H-H[Aib]EGT[αMePhe(2-F)]TSD[Bip][X1]-NH2) | 5.5
2 | C[C@@H](O)[C@H](NC(=O)CNC(=O)[C@H](CCC(=O)O)NC(=O)C(C)(C)NC(=O)[C@@H](N)Cc1c[nH]cn1)C(=O)N[C@@](C)(Cc1ccccc1F)C(=O)N[C@H](C(=O)N[C@@H](CO)C(=O)N[C@@H](CC(=O)O)C(=O)N[C@@](C)(CCc1ccccc1)C(=O)N[C@@H](Cc1ccc(-c2ccccc2)cc1)C(N)=O)[C@@H](C)O [4-3, H2N-His-Aib-Glu-Gly-Thr-α-MePhe(2-F)-Thr-Ser-Asp-α-MeHph-Bip-C(O)NH2] (H-H[Aib]EGT[αMePhe(2-F)]TSD[X1][Bip]-NH2) | 184
3 | C[C@@H](O)[C@H](NC(=O)CNC(=O)[C@H](CCC(=O)O)NC(=O)C(C)(C)NC(=O)[C@@H](N)Cc1c[nH]cn1)C(=O)N[C@@](C)(Cc1ccccc1F)C(=O)N[C@H](C(=O)N[C@@H](CO)C(=O)N[C@@H](CC(=O)O)C(=O)N[C@@H](Cc1ccc(-c2ccccc2)cc1)C(=O)N[C@@H](CCc1ccc(O)cc1)C(N)=O)[C@@H](C)O [4-4, H2N-His-Aib-Glu-Gly-Thr-α-MePhe(2-F)-Thr-Ser-Asp-Bip-Hph(4-OH)-C(O)NH2] (H-H[Aib]EGT[αMePhe(2-F)]TSD[Bip][hTyr]-NH2) | 16.6

same assay, conditions: cAMP EC50, nM (0.1% albumin), Table 6; 0.1% albumin

Row | SMILES | EC50 [nM]
4 | C[C@@H](O)[C@H](NC(=O)CNC(=O)[C@H](CCC(=O)O)NC(=O)C(C)(C)NC(=O)[C@@H](N)Cc1c[nH]cn1)C(=O)N[C@@](C)(Cc1ccccc1F)C(=O)N[C@H](C(=O)N[C@@H](CO)C(=O)N[C@@H](CC(=O)O)C(=O)N[C@@H](Cc1ccc(-c2ccccc2)cc1)C(=O)N[C@@H](CCc1ccc(O)cc1)C(N)=O)[C@@H](C)O [4-4, H2N-His-Aib-Glu-Gly-Thr-α-MePhe(2-F)-Thr-Ser-Asp-Bip-Hph(4-OH)-C(O)NH2] (H-H[Aib]EGT[αMePhe(2-F)]TSD[Bip][hTyr]-NH2) | 16.6
5 | C[C@@H](O)[C@H](NC(=O)CNC(=O)[C@H](CCC(=O)O)NC(=O)C(C)(C)NC(=O)[C@@H](N)Cc1c[nH]cn1)C(=O)N[C@@](C)(Cc1ccccc1F)C(=O)N[C@H](C(=O)N[C@@H](CO)C(=O)N[C@@H](CC(=O)O)C(=O)N[C@@H](Cc1ccc(-c2ccccc2)cc1)C(=O)N[C@@H](Cc1ccc(-c2ccccc2)cc1)C(=O)N[C@@H](CCCCN)C(N)=O)[C@@H](C)O [4-28, H2N-His-Aib-Glu-Gly-Thr-α-MePhe(2F)-Thr-Ser-Asp-Bip-Bip-Lys-NH2] (H-H[Aib]EGT[αMePhe(2-F)]TSD[Bip][Bip]K-NH2) | 16.1
6 | C[C@@H](O)[C@H](NC(=O)CNC(=O)[C@H](CCC(=O)O)NC(=O)C(C)(C)NC(=O)[C@@H](N)Cc1c[nH]cn1)C(=O)N[C@@](C)(Cc1ccccc1F)C(=O)N[C@H](C(=O)N[C@@H](CO)C(=O)N[C@@H](CC(=O)O)C(=O)N[C@@H](Cc1ccc(-c2ccccc2)cc1)C(=O)N[C@@H](Cc1ccc(-c2ccccc2)cc1)C(=O)NCCOCCOCC(=O)NCCOCCOCC(N)=O)[C@@H](C)O [4-29, H2N-His-Aib-Glu-Gly-Thr-α-MePhe(2F)-Thr-Ser-Asp-Bip-Bip-C(O)(AEEA)2-NH2] (H-H[Aib]EGT[αMePhe(2-F)]TSD[Bip][Bip][AEEA][AEEA]-NH2) | 10
7 | C[C@@H](O)[C@H](NC(=O)CNC(=O)[C@H](CCC(=O)O)NC(=O)C(C)(C)NC(=O)[C@@H](N)Cc1c[nH]cn1)C(=O)N[C@@](C)(Cc1ccccc1F)C(=O)N[C@H](C(=O)N[C@@H](CO)C(=O)N[C@@H](CC(=O)O)C(=O)N[C@@H](Cc1ccc(-c2ccccc2)cc1)C(=O)N[C@@H](Cc1ccc(-c2ccccc2)cc1)C(=O)NCCOCCOCC(=O)NCCOCCOCC(=O)N[C@@H](CCCCN)C(N)=O)[C@@H](C)O [4-30, H2N-His-Aib-Glu-Gly-Thr-α-MePhe(2F)-Thr-Ser-Asp-Bip-Bip-C(O)(AEEA)2-Lys-NH2] (H-H[Aib]EGT[αMePhe(2-F)]TSD[Bip][Bip][AEEA][AEEA]K-NH2) | 14
8 | C[C@@H](O)[C@H](NC(=O)CNC(=O)[C@H](CCC(=O)O)NC(=O)C(C)(C)NC(=O)[C@@H](N)Cc1c[nH]cn1)C(=O)N[C@@](C)(Cc1ccccc1F)C(=O)N[C@H](C(=O)N[C@@H](CO)C(=O)N[C@@H](CC(=O)O)C(=O)N[C@@H](Cc1ccc(-c2ccccc2)cc1)C(=O)N[C@@H](Cc1ccc(-c2ccccc2)cc1)C(=O)NCCOCCOCC(=O)NCCOCCOCC(=O)NCCOCCOCC(=O)N[C@@H](CCCCN)C(N)=O)[C@@H](C)O [4-31, H2N-His-Aib-Glu-Gly-Thr-α-MePhe(2F)-Thr-Ser-Asp-Bip-Bip-C(O)(AEEA)3-Lys-NH2] (H-H[Aib]EGT[αMePhe(2-F)]TSD[Bip][Bip][AEEA][AEEA][AEEA]K-NH2) | 31.2
9 | C[C@@H](O)[C@H](NC(=O)CNC(=O)[C@H](CCC(=O)O)NC(=O)C(C)(C)NC(=O)[C@@H](N)Cc1c[nH]cn1)C(=O)N[C@@](C)(Cc1ccccc1F)C(=O)N[C@H](C(=O)N[C@@H](CO)C(=O)N[C@@H](CC(=O)O)C(=O)N[C@@H](Cc1ccc(-c2ccccc2)cc1)C(=O)N[C@@H](Cc1ccc(-c2ccccc2)cc1)C(=O)NC(C)(C)C(=O)NCC(=O)NCC(=O)N[C@@H](CCCCN)C(N)=O)[C@@H](C)O [4-33, H2N-His-Aib-Glu-Gly-Thr-α-MePhe(2F)-Thr-Ser-Asp-Bip-Bip-Aib-(Gly)2-Lys-NH2] (H-H[Aib]EGT[αMePhe(2-F)]TSD[Bip][Bip][Aib]GGK-NH2) | 33.7
10 | C[C@@H](O)[C@H](NC(=O)CNC(=O)[C@H](CCC(=O)O)NC(=O)C(C)(C)NC(=O)[C@@H](N)Cc1c[nH]cn1)C(=O)N[C@@](C)(Cc1ccccc1F)C(=O)N[C@H](C(=O)N[C@@H](CO)C(=O)N[C@@H](CC(=O)O)C(=O)N[C@@H](Cc1ccc(-c2ccccc2)cc1)C(=O)N[C@@H](CCc1ccccc1)C(=O)NCCOCCOCC(=O)NCCOCCOCC(N)=O)[C@@H](C)O [4-35, H2N-His-Aib-Glu-Gly-Thr-α-MePhe(2-F)-Thr-Ser-Asp-Bip-Hph-C(O)NH-RY1] (H-H[Aib]EGT[αMePhe(2-F)]TSD[Bip][hPhe][AEEA][AEEA]-NH2) | 67.2
11 | C[C@@H](O)[C@H](NC(=O)CNC(=O)[C@H](CCC(=O)O)NC(=O)C(C)(C)NC(=O)[C@@H](N)Cc1c[nH]cn1)C(=O)N[C@@](C)(Cc1ccccc1F)C(=O)N[C@H](C(=O)N[C@@H](CO)C(=O)N[C@@H](CC(=O)O)C(=O)N[C@@H](Cc1ccc(-c2ccccc2)cc1)C(=O)N[C@@H](CCc1ccccc1)C(=O)NCCOCCOCC(=O)NCCOCCOCC(=O)NC[C@H](NC(=O)CCCCCCCCCCCCCCCCC(=O)O)C(=O)O)[C@@H](C)O [4-36, H2N-His-Aib-Glu-Gly-Thr-α-MePhe(2-F)-Thr-Ser-Asp-Bip-Hph-C(O)NH-RY2] (H-H[Aib]EGT[αMePhe(2-F)]TSD[Bip][hPhe][AEEA][AEEA]-{Dap(Nα-HOOC(CH2)16CO)OH}) | 70.9

same assay, conditions: relative to parent 1-4

Row | SMILES | fold lower potency than the parent peptide (1-4)
12 | C[C@@H](O)[C@H](NC(=O)CNC(=O)[C@H](CCC(=O)O)NC(=O)C(C)(C)NC(=O)[C@@H](N)Cc1c[nH]cn1)C(=O)N[C@@](C)(Cc1ccccc1F)C(=O)N[C@H](C(=O)N[C@@H](CO)C(=O)N[C@@H](CC(=O)O)C(=O)N[C@@H](Cc1ccc(-c2ccccc2)cc1)C(=O)N[C@@H](CCc1ccccc1)C(=O)NCCOCCOCC(=O)NCCOCCOCC(=O)NC[C@H](NC(=O)CCCCCCCCCCCCCCCCC(=O)O)C(=O)O)[C@@H](C)O [4-36, H2N-His-Aib-Glu-Gly-Thr-α-MePhe(2-F)-Thr-Ser-Asp-Bip-Hph-C(O)NH-RY2] (H-H[Aib]EGT[αMePhe(2-F)]TSD[Bip][hPhe][AEEA][AEEA]-{Dap(Nα-HOOC(CH2)16CO)OH}) | 15 fold
13 | C[C@@H](O)[C@H](NC(=O)CNC(=O)[C@H](CCC(=O)O)NC(=O)C(C)(C)NC(=O)[C@@H](N)Cc1c[nH]cn1)C(=O)N[C@@](C)(Cc1ccccc1F)C(=O)N[C@H](C(=O)N[C@@H](CO)C(=O)N[C@@H](CC(=O)O)C(=O)N[C@@H](Cc1ccc(-c2ccccc2)cc1)C(=O)N[C@@H](CCc1ccccc1)C(=O)NCCOCCOCC(=O)NCCOCCOCC(=O)NCCOCCOCC(=O)NC[C@H](NC(=O)CCc1ccc(I)cc1)C(=O)O)[C@@H](C)O [4-37, H2N-His-Aib-Glu-Gly-Thr-α-MePhe(2-F)-Thr-Ser-Asp-Bip-Hph-C(O)NH-RY3] (H-H[Aib]EGT[αMePhe(2-F)]TSD[Bip][hPhe][AEEA][AEEA][AEEA]-X2) | equipotency
